ChEMBL document CHEMBL1201862, “PubChem BioAssay data set” (2004)
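Tested at 5 concentrations; 48 h exposure; 96-well plates; endpoints linearly interpolated, else capped at highest concentration. The concentration for 50% growth inhibition is given as GI50.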 Calls of active or inactive are those of the source. Cut-off read from the data, not from the text of the source: active = GI50 up to about 1.1 µM and inactive = higher.

What was measured:
Assay in all cases: NCI-60 cell line screen, 48 h
HOP-18 = tested on: HOP-18
DMS-273 = tested on: DMS-273
DLD-1 = tested on: DLD-1
DMS-114 = tested on: DMS-114
SNB-78 = tested on: SNB-78
XF498 = tested on: XF498
M19-MEL = tested on: M19-MEL
LXFL 529 = tested on: LXFL 529
RXF 631 = tested on: RXF 631

Row | SMILES | GI50 (HOP-18) | GI50 (DMS-273) | GI50 (DLD-1) | GI50 (DMS-114) | GI50 (SNB-78) | GI50 (XF498) | GI50 (M19-MEL) | GI50 (LXFL 529) | GI50 (RXF 631)
1 | O=NN(CCCl)C(=O)NC1CCC(=O)NC1=O (stereo unspecified) | 432 µM (inactive) | 160 µM (inactive) | 358 µM (inactive) | 214 µM (inactive) | 176 µM (inactive) | 69 µM (inactive) | 250 µM (inactive) |  | 
2 | O=c1[nH]c(C2CCCCC2)nc2cc(Cl)ccc12 |  | > 100 µM (inactive) |  | > 100 µM (inactive) | > 100 µM (inactive) |  | > 100 µM (inactive) | > 100 µM (inactive) | 
3 | C=CCNC(=O)/C=C\C(=O)O | > 100 µM (inactive) | > 100 µM (inactive) | > 100 µM (inactive) | > 100 µM (inactive) | > 100 µM (inactive) |  | > 100 µM (inactive) | > 100 µM (inactive) | > 100 µM (inactive)
4 | CC/C(CC(=O)CCC(=O)Nc1ccc(C)c(C)c1)=N\NC(=O)C(N)=O | > 100 µM (inactive) | > 100 µM (inactive) | > 100 µM (inactive) | > 100 µM (inactive) | > 100 µM (inactive) | > 100 µM (inactive) | > 100 µM (inactive) | > 100 µM (inactive) | 
5 | O=C(O)Cc1cc(=O)oc2cc(O)c(Cl)cc12 | > 100 µM (inactive) | > 100 µM (inactive) | > 100 µM (inactive) | > 100 µM (inactive) |  | > 100 µM (inactive) | > 100 µM (inactive) | > 100 µM (inactive) | 
6 | COP(=O)(OC)/C(=N\Nc1ccc([N+](=O)[O-])cc1)NCc1ccccc1 |  | 36.3 µM (inactive) | 33.3 µM (inactive) | 21.4 µM (inactive) |  |  | 37.3 µM (inactive) | 31.8 µM (inactive) | 
7 | CC1(O)CCn2c(=O)c3cc4ccccc4cc3c(=O)n2C1O (stereo unspecified) | 26.8 µM (inactive) | > 100 µM (inactive) | > 100 µM (inactive) | > 100 µM (inactive) |  |  | > 100 µM (inactive) | > 100 µM (inactive) | > 100 µM (inactive)
8 | C[C@H]1COC2(c3ccccc3)CCC(=O)N12 (stereo partly specified) | > 100 µM (inactive) | > 100 µM (inactive) | > 100 µM (inactive) | > 100 µM (inactive) | > 100 µM (inactive) | > 100 µM (inactive) | > 100 µM (inactive) |  | 
9 | O=C(/C=C/c1c(O)ccc2ccccc12)c1ccc2ccccc2c1 |  | > 100 µM (inactive) | > 100 µM (inactive) | > 100 µM (inactive) | > 100 µM (inactive) |  | 18.2 µM (inactive) |  | 
10 | CC(=O)NC(CCCNC(=O)OCc1ccccc1)C(=O)O (stereo unspecified) |  | > 100 µM (inactive) | > 100 µM (inactive) | > 100 µM (inactive) | 49.5 µM (inactive) | > 100 µM (inactive) | > 100 µM (inactive) | 47.5 µM (inactive) | > 100 µM (inactive)
11 | COCOc1ccc(Cn2c(=O)n(C)c(=O)c3c2ncn3C)cc1[N+](=O)[O-] |  | > 100 µM (inactive) | > 100 µM (inactive) | 44.6 µM (inactive) | > 100 µM (inactive) |  | > 100 µM (inactive) | 79.8 µM (inactive) | 
12 | COc1ccc(/C=C2\CCCC(C(NO)c3ccc(OC)cc3)C2=NO)cc1 (stereo unspecified) | 32.4 µM (inactive) | 45.9 µM (inactive) | 46.7 µM (inactive) | 28.4 µM (inactive) | 45.7 µM (inactive) |  | 46.3 µM (inactive) | 28.1 µM (inactive) | 40.5 µM (inactive)
13 | CC(=O)/C=C\C1CC2C=CC1C2 (stereo unspecified) | 96.6 µM (inactive) | 41 µM (inactive) | 15.1 µM (inactive) | 21.5 µM (inactive) | 22.1 µM (inactive) |  | 55.3 µM (inactive) | 29.4 µM (inactive) | 51.5 µM (inactive)
14 | CCOC(=O)CCC1(C(=O)OCC)CCCC1=O (stereo unspecified) | > 100 µM (inactive) | 43.2 µM (inactive) | > 100 µM (inactive) | > 100 µM (inactive) | > 100 µM (inactive) | > 100 µM (inactive) | > 100 µM (inactive) | > 100 µM (inactive) | > 100 µM (inactive)
15 | Cc1ccc2nc3cc(C)c(=O)cc-3sc2c1 | > 100 µM (inactive) | > 100 µM (inactive) | > 100 µM (inactive) | 40.7 µM (inactive) | > 100 µM (inactive) |  | 16.1 µM (inactive) | 78.5 µM (inactive) | 
16 | O=C1NC2C(=O)N(Cc3ccccc3)C(=O)C2N1 (stereo unspecified) |  |  | > 100 µM (inactive) | > 100 µM (inactive) | > 100 µM (inactive) | > 100 µM (inactive) | > 100 µM (inactive) | > 100 µM (inactive) | 
17 | O=C(CSc1nnc(-c2ccc(/N=C\c3ccc(Cl)cc3)cc2)o1)Nc1ccccc1 | 54.2 µM (inactive) | 27.3 µM (inactive) |  | 58.1 µM (inactive) | 63.1 µM (inactive) | > 100 µM (inactive) | 36.6 µM (inactive) | 50.6 µM (inactive) | 
18 | CCc1nc2ccccc2c(=O)n1/N=C(\N=N\c1ccc(Cl)cc1)c1ccccc1 | 12.5 µM (inactive) | 20.7 µM (inactive) | 37.2 µM (inactive) | 18.7 µM (inactive) | 27.1 µM (inactive) |  | 41.8 µM (inactive) | 19.1 µM (inactive) | 
19 | CC(=O)O[C@H]1C(=O)[C@@]2(C)C(C(OC(=O)c3ccccc3)[C@]3(O)CC(OC(=O)C(O)C(NC(=O)c4ccc(C(F)(F)F)cc4)c4ccccc4)C(C)=C1C3(C)C)[C@]1(OC(C)=O)CO[C@@H]1C[C@@H]2O (stereo partly specified) | 0.836 µM (active) | 0.0431 µM (active) | 0.231 µM (active) | 0.0226 µM (active) | 0.453 µM (active) | 0.681 µM (active) | 0.0824 µM (active) |  | 
20 | CCC[S+]([O-])c1nc(COC(=O)NC)c(COC(=O)NC)n1C (stereo unspecified) | > 100 µM (inactive) | > 100 µM (inactive) | > 100 µM (inactive) | > 100 µM (inactive) | > 100 µM (inactive) | > 100 µM (inactive) | > 100 µM (inactive) | > 100 µM (inactive) | > 100 µM (inactive)
